{"source": "paper PMC5218480", "about": "(PLoS ONE, 2017)", "system": "MV-4-11 cells", "assay": "Gene expression microarray analysis (Affymetrix PrimeView) and GSEA", "assay_type": "cell-based, human", "set-up": "RFU PODN (11730768_x_at) / Fold change /veh PODN (11730768_x_at) / RFU LINC00158 (11744669_a_at) / Fold change /veh LINC00158 (11744669_a_at) / RFU DUSP10 (11751237_a_at) / Fold change /veh DUSP10 (11751237_a_at) / RFU ID3 (11757404_x_at) / Fold change /veh ID3 (11757404_x_at) / RFU PLEKHG5 (11737974_s_at) / Fold change /veh PLEKHG5 (11737974_s_at) / RFU LRRC4B (11730491_at) / Fold change /veh LRRC4B (11730491_at) / RFU GIMAP4 (11747438_a_at) / Fold change /veh GIMAP4 (11747438_a_at) / RFU KRT8 (11758183_x_at) / Fold change /veh KRT8 (11758183_x_at) / RFU CNN1 (11734310_a_at) / Fold change /veh CNN1 (11734310_a_at) / RFU VPS37D (11726825_at) / Fold change /veh VPS37D (11726825_at) / RFU C10orf10 (11716522_x_at) / Fold change /veh C10orf10 (11716522_x_at) / RFU KIR2DL2 /// KIR2DL4 /// KIR2DL5A /// KIR2DL5B /// KIR2DS1 /// KIR2DS2 /// KIR2DS3 /// KIR2DS4 /// KIR3DL3 /// KIR3DL3 /// KIR3DS1 (11738374_at) / Fold change /veh KIR2DL2 /// KIR2DL4 /// KIR2DL5A /// KIR2DL5B /// KIR2DS1 /// KIR2DS2 /// KIR2DS3 /// KIR2DS4 /// KIR3DL3 /// KIR3DL3 /// KIR3DS1 (11738374_at) / RFU C1QL1 (11718748_at) / Fold change /veh C1QL1 (11718748_at) / RFU TMPRSS4 (11747572_a_at) / Fold change /veh TMPRSS4 (11747572_a_at) / RFU HAMP (11756126_x_at) / Fold change /veh HAMP (11756126_x_at) / RFU RNFT2 (11725882_a_at) / Fold change /veh RNFT2 (11725882_a_at) / RFU NR4A2 (11747474_a_at) / Fold change /veh NR4A2 (11747474_a_at) / RFU ABCC12 (11746883_a_at) / Fold change /veh ABCC12 (11746883_a_at) / RFU TMEM136 (11760407_x_at) / Fold change /veh TMEM136 (11760407_x_at) / RFU CLDN22 /// WWC2 (11732394_at) / Fold change /veh CLDN22 /// WWC2 (11732394_at) / RFU HLA-DPB1 (11760878_x_at) / Fold change /veh HLA-DPB1 (11760878_x_at) / RFU SPINT1 (11716480_a_at) / Fold change /veh SPINT1 (11716480_a_at) / RFU GAP43 (11754022_s_at) / Fold change /veh GAP43 (11754022_s_at) / RFU A4GNT (11735810_at) / Fold change /veh A4GNT (11735810_at) / RFU PRB3 (11715151_x_at) / Fold change /veh PRB3 (11715151_x_at) / RFU TUBB4B (11761932_at) / Fold change /veh TUBB4B (11761932_at) / RFU CAPN14 (11732068_a_at) / Fold change /veh CAPN14 (11732068_a_at) / RFU TMCC2 (11721928_a_at) / Fold change /veh TMCC2 (11721928_a_at) / RFU IRGQ (11745062_a_at) / Fold change /veh IRGQ (11745062_a_at) / RFU FAM174B (11720279_a_at) / Fold change /veh FAM174B (11720279_a_at) / RFU TMPRSS4 (11748680_a_at) / Fold change /veh TMPRSS4 (11748680_a_at) / RFU FAM212B (11763350_a_at) / Fold change /veh FAM212B (11763350_a_at) / RFU PLEKHG5 (11743358_a_at) / Fold change /veh PLEKHG5 (11743358_a_at) / RFU ZSCAN30 (11745921_a_at) / Fold change /veh ZSCAN30 (11745921_a_at) / RFU CMKLR1 (11741424_a_at) / Fold change /veh CMKLR1 (11741424_a_at) / RFU LOC101060620 /// MAPK8IP1 (11723275_at) / Fold change /veh LOC101060620 /// MAPK8IP1 (11723275_at) / RFU SPTSSB (11747773_x_at) / Fold change /veh SPTSSB (11747773_x_at) / RFU PRSS12 (11739890_at) / Fold change /veh PRSS12 (11739890_at) / RFU BIN1 (11741810_x_at) / Fold change /veh BIN1 (11741810_x_at) / RFU WNT11 (11732464_a_at) / Fold change /veh WNT11 (11732464_a_at) / RFU C10orf10 (11716521_a_at) / Fold change /veh C10orf10 (11716521_a_at) / RFU C5orf56 (11738089_at) / Fold change /veh C5orf56 (11738089_at) / RFU CYB561 (11721691_x_at) / Fold change /veh CYB561 (11721691_x_at) / RFU ANKRD19P (11752326_a_at) / Fold change /veh ANKRD19P (11752326_a_at) / RFU OR2T12 /// OR2T33 /// OR2T8 (11738714_s_at) / Fold change /veh OR2T12 /// OR2T33 /// OR2T8 (11738714_s_at) / RFU VCAN (11748164_a_at) / Fold change /veh VCAN (11748164_a_at) / RFU JSRP1 (11732532_at) / Fold change /veh JSRP1 (11732532_at) / RFU KRTAP10-11 (11738290_x_at) / Fold change /veh KRTAP10-11 (11738290_x_at) / RFU MYO3A (11730013_a_at) / Fold change /veh MYO3A (11730013_a_at) / RFU EBF3 (11725865_a_at) / Fold change /veh EBF3 (11725865_a_at) / RFU CAMK2N1 (11719241_x_at) / Fold change /veh CAMK2N1 (11719241_x_at) / RFU C5orf56 (11738088_a_at) / Fold change /veh C5orf56 (11738088_a_at) / RFU OLFML3 (11715873_a_at) / Fold change /veh OLFML3 (11715873_a_at) / RFU LOC100653217 /// NTM (11731650_a_at) / Fold change /veh LOC100653217 /// NTM (11731650_a_at) / RFU MAPK11 (11762145_a_at) / Fold change /veh MAPK11 (11762145_a_at) / RFU FIZ1 (11724087_x_at) / Fold change /veh FIZ1 (11724087_x_at) / RFU OASL (11726364_x_at) / Fold change /veh OASL (11726364_x_at) / RFU SOX15 (11748057_x_at) / Fold change /veh SOX15 (11748057_x_at) / RFU CD79A (11719716_a_at) / Fold change /veh CD79A (11719716_a_at) / RFU HIST1H1D (11736915_at) / Fold change /veh HIST1H1D (11736915_at) / RFU CASKIN2 (11723855_a_at) / Fold change /veh CASKIN2 (11723855_a_at) / RFU LOC730098 (11760151_x_at) / Fold change /veh LOC730098 (11760151_x_at) / RFU OR4N2 (11742367_at) / Fold change /veh OR4N2 (11742367_at) / RFU PRRT2 (11749266_a_at) / Fold change /veh PRRT2 (11749266_a_at) / RFU SNX32 (11753110_a_at) / Fold change /veh SNX32 (11753110_a_at) / RFU CDHR5 (11726645_a_at) / Fold change /veh CDHR5 (11726645_a_at) / RFU RCAN1 (11760418_a_at) / Fold change /veh RCAN1 (11760418_a_at) / RFU FAM167A (11723789_a_at) / Fold change /veh FAM167A (11723789_a_at) / RFU FAM26E (11764081_at) / Fold change /veh FAM26E (11764081_at) / RFU ISYNA1 (11749810_s_at) / Fold change /veh ISYNA1 (11749810_s_at) / RFU ACY1 (11761880_at) / Fold change /veh ACY1 (11761880_at) / RFU 11764098_at / Fold change /veh 11764098_at / RFU SAMD14 (11745864_x_at) / Fold change /veh SAMD14 (11745864_x_at) / RFU NPB (11741838_a_at) / Fold change /veh NPB (11741838_a_at) / RFU TMPRSS6 (11731388_a_at) / Fold change /veh TMPRSS6 (11731388_a_at) / RFU KRTAP10-2 (11738614_at) / Fold change /veh KRTAP10-2 (11738614_at) / RFU ARHGAP8 /// PRR5-ARHGAP8 (11727945_x_at) / Fold change /veh ARHGAP8 /// PRR5-ARHGAP8 (11727945_x_at) / RFU KRTAP5-7 /// NADSYN1 (11734609_at) / Fold change /veh KRTAP5-7 /// NADSYN1 (11734609_at) / RFU RASL12 (11751679_a_at) / Fold change /veh RASL12 (11751679_a_at) / RFU CDKN2B (11736163_a_at) / Fold change /veh CDKN2B (11736163_a_at) / RFU PRF1 (11729649_at) / Fold change /veh PRF1 (11729649_at) / RFU, ZNF638 /// ZNF638-IT1 / Fold change vs veh, ZNF638 /// ZNF638-IT1 / RFU, PANK3 / Fold change vs veh, PANK3 / RFU, SH3YL1 / Fold change vs veh, SH3YL1 / RFU, ZEB2 / Fold change vs veh, ZEB2 / RFU, NRIP1 / Fold change vs veh, NRIP1 / RFU, PTTG1IP / Fold change vs veh, PTTG1IP / RFU, CAPN2 / Fold change vs veh, CAPN2 / RFU, MED14 / Fold change vs veh, MED14 / RFU, SNORA58 / Fold change vs veh, SNORA58 / RFU, C1orf63 / Fold change vs veh, C1orf63 / RFU, LRRFIP1 / Fold change vs veh, LRRFIP1 / RFU, NDUFAF7 / Fold change vs veh, NDUFAF7 / RFU, SLC12A2 / Fold change vs veh, SLC12A2 / RFU, IBTK / Fold change vs veh, IBTK / RFU, ESF1 / Fold change vs veh, ESF1 / Fold change vs veh, TMEM50B / RFU, TAOK1 / Fold change vs veh, TAOK1 / RFU, ACBD3 / Fold change vs veh, ACBD3 / RFU, TMA16 / Fold change vs veh, TMA16 / RFU, RWDD3 / Fold change vs veh, RWDD3 / RFU, BCAT1 / Fold change vs veh, BCAT1 / RFU, EDEM3 / Fold change vs veh, EDEM3 / RFU, TMEM33 / Fold change vs veh, TMEM33 / RFU, WDR75 / Fold change vs veh, WDR75 / RFU, AHCTF1 / Fold change vs veh, AHCTF1 / RFU, TFRC / Fold change vs veh, TFRC / RFU, ZDHHC17 / Fold change vs veh, ZDHHC17 / RFU, NOM1 / Fold change vs veh, NOM1 / RFU, ARL8B / Fold change vs veh, ARL8B / RFU, ZBTB11 / Fold change vs veh, ZBTB11 / RFU, TAMM41 / Fold change vs veh, TAMM41 / RFU, KIAA1704 /// LOC100996395 / Fold change vs veh, KIAA1704 /// LOC100996395 / RFU, ING1 / Fold change vs veh, ING1 / RFU, TRMT61B / Fold change vs veh, TRMT61B / RFU, FUBP3 / Fold change vs veh, FUBP3 / RFU, TP53 / Fold change vs veh, TP53 / RFU, TNKS2 / Fold change vs veh, TNKS2 / RFU, ZFP14 / Fold change vs veh, ZFP14 / RFU, ACTR2 / Fold change vs veh, ACTR2 / RFU, PPP3R1 / Fold change vs veh, PPP3R1 / RFU, PIK3R1 / Fold change vs veh, PIK3R1 / RFU, HNRNPA1 / Fold change vs veh, HNRNPA1 / RFU, RNF170 / Fold change vs veh, RNF170 / RFU, ZNF28 / Fold change vs veh, ZNF28 / RFU, RNGTT / Fold change vs veh, RNGTT / RFU, OGT / Fold change vs veh, OGT / RFU, BRD1 / Fold change vs veh, BRD1 / RFU, MARS / Fold change vs veh, MARS / RFU, ZNF655 / Fold change vs veh, ZNF655 / RFU, FAHD1 / Fold change vs veh, FAHD1 / RFU, BDP1 / Fold change vs veh, BDP1 / RFU, LRRCC1 / Fold change vs veh, LRRCC1 / RFU, ARID1A / Fold change vs veh, ARID1A / RFU, ZNF146 / Fold change vs veh, ZNF146 / RFU, ZNF330 / Fold change vs veh, ZNF330 / RFU, GPN3 / Fold change vs veh, GPN3 / RFU, C9orf123 / Fold change vs veh, C9orf123 / RFU, N4BP2L2 / Fold change vs veh, N4BP2L2 / RFU, ARFIP1 / Fold change vs veh, ARFIP1 / RFU, FAM179B / Fold change vs veh, FAM179B / RFU, BCL10 / Fold change vs veh, BCL10 / RFU, UHRF1BP1L / Fold change vs veh, UHRF1BP1L / RFU, BET1 / Fold change vs veh, BET1 / RFU, CNOT2 / Fold change vs veh, CNOT2 / RFU, ZNF268 / Fold change vs veh, ZNF268 / Fold change vs veh, ZNF507 / RFU, DGCR2 / Fold change vs veh, DGCR2 / RFU, WDSUB1 / Fold change vs veh, WDSUB1 / Fold change vs veh, HSP90B1 /// MIR3652 / RFU, ADSS / Fold change vs veh, ADSS / RFU, GK / Fold change vs veh, GK / RFU, ZNF148 / Fold change vs veh, ZNF148 / RFU, TAF9 / Fold change vs veh, TAF9 / RFU, SLC1A5 / Fold change vs veh, SLC1A5 / RFU, SLMO2 / Fold change vs veh, SLMO2 / RFU, ABCC4 / Fold change vs veh, ABCC4 / RFU, LOC101060439 /// RAP1B / Fold change vs veh, LOC101060439 /// RAP1B / RFU, RFX7 / Fold change vs veh, RFX7 / RFU, GTPBP10 / Fold change vs veh, GTPBP10 / RFU, CNEP1R1 / Fold change vs veh, CNEP1R1 / RFU, BIVM-ERCC5 /// ERCC5 / Fold change vs veh, BIVM-ERCC5 /// ERCC5 / RFU, ILF3 / Fold change vs veh, ILF3 / RFU 11762660_at / Fold change /veh 11762660_at / RFU VCAN (11757783_s_at) / Fold change /veh VCAN (11757783_s_at) / RFU DDX43 (11728927_at) / Fold change /veh DDX43 (11728927_at) / RFU KRT8 (11758188_x_at) / Fold change /veh KRT8 (11758188_x_at) / RFU NKD1 (11759106_at) / Fold change /veh NKD1 (11759106_at) / RFU SRD5A1 (11742802_a_at) / Fold change /veh SRD5A1 (11742802_a_at) / RFU TPSAB1 /// TPSB2 (11721975_s_at) / Fold change /veh TPSAB1 /// TPSB2 (11721975_s_at) / RFU GSTM3 (11746129_a_at) / Fold change /veh GSTM3 (11746129_a_at) / RFU IL23R (11737362_x_at) / Fold change /veh IL23R (11737362_x_at) / RFU TMEM51 (11727254_a_at) / Fold change /veh TMEM51 (11727254_a_at) / RFU PIWIL2 (11732686_x_at) / Fold change /veh PIWIL2 (11732686_x_at) / RFU ORM1 (11744905_x_at) / Fold change /veh ORM1 (11744905_x_at) / RFU CCDC152 (11743942_at) / Fold change /veh CCDC152 (11743942_at) / RFU ECM1 (11717891_a_at) / Fold change /veh ECM1 (11717891_a_at) / RFU IL23R (11748794_a_at) / Fold change /veh IL23R (11748794_a_at) / RFU TNFAIP8L3 (11732012_x_at) / Fold change /veh TNFAIP8L3 (11732012_x_at) / RFU MBOAT4 (11741988_at) / Fold change /veh MBOAT4 (11741988_at) / RFU 11764193_at / Fold change /veh 11764193_at / RFU TMEM53 (11763286_at) / Fold change /veh TMEM53 (11763286_at) / RFU MAGEB2 (11727129_at) / Fold change /veh MAGEB2 (11727129_at) / RFU TMEM200A (11744735_a_at) / Fold change /veh TMEM200A (11744735_a_at) / RFU CCDC152 (11751479_a_at) / Fold change /veh CCDC152 (11751479_a_at) / RFU FAM211A (11726209_a_at) / Fold change /veh FAM211A (11726209_a_at) / RFU RGS16 (11746705_a_at) / Fold change /veh RGS16 (11746705_a_at) / RFU VCAN (11755009_s_at) / Fold change /veh VCAN (11755009_s_at) / RFU RHOB (11743442_s_at) / Fold change /veh RHOB (11743442_s_at) / RFU RGS16 (11720943_a_at) / Fold change /veh RGS16 (11720943_a_at) / RFU RGS16 (11720944_at) / Fold change /veh RGS16 (11720944_at) / RFU, VPS4B / Fold change vs veh, VPS4B / RFU, CREB1 / Fold change vs veh, CREB1 / RFU, DNAJC13 / Fold change vs veh, DNAJC13 / RFU, GNAQ / Fold change vs veh, GNAQ / RFU, CDK5R1 / Fold change vs veh, CDK5R1 / RFU, ZRANB3 / Fold change vs veh, ZRANB3 / RFU, CUL4A / Fold change vs veh, CUL4A / RFU, CCNY / Fold change vs veh, CCNY / RFU, UFL1 / Fold change vs veh, UFL1 / RFU, COG3 / Fold change vs veh, COG3 / RFU, DIAPH2 / Fold change vs veh, DIAPH2 / RFU, SKA2 / Fold change vs veh, SKA2 / RFU, AFF3 / Fold change vs veh, AFF3 / RFU, LMF1 / Fold change vs veh, LMF1 / RFU, IPO11 / Fold change vs veh, IPO11 / RFU, DFFB / Fold change vs veh, DFFB / RFU, FOXP1 / Fold change vs veh, FOXP1 / RFU, CARD8 / Fold change vs veh, CARD8 / RFU, STRN3 / Fold change vs veh, STRN3 / RFU, ADK / Fold change vs veh, ADK / RFU, RASSF2 / Fold change vs veh, RASSF2 / RFU, WIPF1 / Fold change vs veh, WIPF1 / RFU, LARP1B / Fold change vs veh, LARP1B / RFU, RASA1 / Fold change vs veh, RASA1 / RFU, RB1 / Fold change vs veh, RB1 / RFU, PPFIA1 / Fold change vs veh, PPFIA1 / RFU, MAT2A / Fold change vs veh, MAT2A / RFU, CCT5 / Fold change vs veh, CCT5 / RFU, WDR92 / Fold change vs veh, WDR92 / RFU, CUX1 / Fold change vs veh, CUX1 / RFU, TTC7A / Fold change vs veh, TTC7A / RFU, TMEM135 / Fold change vs veh, TMEM135 / RFU, DEPTOR / Fold change vs veh, DEPTOR / RFU, CPM / Fold change vs veh, CPM / RFU, DNAJB6 / Fold change vs veh, DNAJB6 / RFU, CACNA2D3 / Fold change vs veh, CACNA2D3 / RFU, DTX4 / Fold change vs veh, DTX4 / RFU, TFCP2 / Fold change vs veh, TFCP2 / RFU, GMCL1 /// GMCL1P1 / Fold change vs veh, GMCL1 /// GMCL1P1 / RFU, AEBP2 / Fold change vs veh, AEBP2 / RFU, SNHG1 /// SNORD22 /// SNORD25 /// SNORD26 /// SNORD27 /// SNORD28 /// SNORD29 /// SNORD31 / Fold change vs veh, SNHG1 /// SNORD22 /// SNORD25 /// SNORD26 /// SNORD27 /// SNORD28 /// SNORD29 /// SNORD31 / Fold change (Aza/veh), C12orf56 (ProbeSet 11735607_a_at) / Fold change (ACY-1035/veh), C12orf56 (ProbeSet 11735607_a_at) / Fold change (Aza/veh), FGFR1OP (ProbeSet 11751329_s_at) / Fold change (ACY-1035/veh), FGFR1OP (ProbeSet 11751329_s_at) / Fold change (Aza/veh), VPS36 (ProbeSet 11739960_a_at) / Fold change (ACY-1035/veh), VPS36 (ProbeSet 11739960_a_at) / RFU SYPL1 (11715823_x_at) / Fold change /veh SYPL1 (11715823_x_at) / RFU IGFBP7 (11715501_s_at) / Fold change /veh IGFBP7 (11715501_s_at) / RFU REEP3 (11722064_at) / Fold change /veh REEP3 (11722064_at) / RFU IGLL1 (11728026_x_at) / Fold change /veh IGLL1 (11728026_x_at): dose or concentration left out as unconfirmed", "settings": "ProbeSet 11740528_a_at; LIST D"}
{"molecule": "Nc1ncn([C@@H]2O[C@H](CO)[C@@H](O)[C@H]2O)c(=O)n1", "note": "[azacitidine]", "values": [{"measurement": "Fold change vs veh, AFF3", "value": 0.47}]}
